US20210106612A1, “TARGET GENE TRANSCRIPTIONAL REPRESSION INHIBITOR THAT CAN BE DESIGNED IN A SEQUENCE-SPECIFIC MANNER, COMPOSITION CONTAINING SAME, AND USE THEREOF” (National University Corporation Chiba University, priority 2016, published 2021)

Legend:
RKO cells [1] = assay: genome-wide DNA methylation analysis (Infinium Human Methylation 450 BeadChip) in RKO cells; format: cell-based; details: for genome-wide methylation level: RKO cells, 0.5 μM AZA, 10 μM Im0 or Im3 under hypoxic conditions, FIG. 8; for genes whose methylation level was reduced by Im0 and Im3 in common, TSS±1 kb region / probes whose methylation level was reduced by Im0 and Im3 in common, TSS±1 kb region / probes whose methylation level was reduced by Im0 and Im3 in common, whole genome: β value <0.65 in Im0-treated and in Im3-treated cells of H75; for genes whose methylation was selectively reduced by this PIP, TSS±1 kb region / probes whose methylation was selectively reduced by this PIP, TSS±1 kb region / probes whose methylation was selectively reduced by this PIP, whole genome: β value <0.65 with this PIP and >0.8 with the other PIP on H75, 10 μM, 75 days, hypoxia after AZA
Procedure: (§1) The large intestine cancer cell line RKO cells were seeded at a density of 1×10^5 cells over a 6 cm dish and incubated for 24 hours. Subsequently, the culture solution was replaced with a culture solution containing 0.5 μM 5-aza-2′-deoxycytidine (AZA). The cultured cells were exposed to AZA over 2.4 hours. The cells were recovered on the 10th day, or cultured under hypoxic conditions as mentioned below.
(§2) In order to culture the cells under hypoxic conditions, the cells were cultured for 8 days under continuous aeration conditions with humidified air containing 94% N2, 5% CO2 and 1% O2 in an incubator equipped with an O2 sensor and MCO-18M regulator (Sanyo Electric Co., Ltd., Osaka, Japan). The CO2 concentration was maintained by the internal CO2 concentration regulation mechanism. Subsequently, the AZA-treated cells were treated with 0.1% DMSO containing 10 μM Im0 or Im3 for 75 days. During this operation, the medium containing PIP was replaced every 5 days. The cells were subcultured at a density of 2×10^5 cells over a 6 cm dish when becoming confluent. The cells were recovered on the 0th day (H0, before hypoxia treatment) and the 75th day (H75).
Genome-wide DNA methylation analysis was conducted as follows: first, 500 ng of genomic DNA obtained from each sample was treated with bisulfite using Zymo EZ DNA Methylation Kit (Zymo Research Corp., Irvine, Calif., USA). Whole genome amplification, labeling, hybridization and scanning were performed according to manufacturers' manuals.
Methylation analysis was conducted using Infinium Human Methylation 450 BeadChip (Illumina, Inc.) for the whole genome or in a ±1 kb region of the transcription start site (TSS) of each gene. Specifically, the ratio of probes for methylated sequences to the total of the probes for methylated sequences and probes for nonmethylated sequences (in the present specification, referred to as a “β value”) was determined. The β value is 0.00 when no methylation is found in all CpG sites, and is 1.00 when all CpG sites are methylated.
First, genes with β value >0.8 in the negative control RKO cells were selected. Genes with β value <0.5 on HO and β value >0.8 in the presence of treatment with 0.1% DMSO on H75 were further selected from the selected genes.

[2] = tested on: promoter region of the MLH1 gene; assay: methylation of promoter region of MLH1 gene in RKO cells, pyrosequencing; format: cell-based
Procedure: 1.0×10^5 cells of the […] cells were seeded over a 6 cm dish and treated with a medium containing 5.0 μM 5-aza-2'-deoxycytidine (AZA) over 7 days from the next day. The medium was replaced with a fresh medium every 24 hours. The cells were treated with a medium containing 10 nM trichostatin A (TSA) on the 7th day and recovered on the 8th day. […] The cells of the 8th day were cultured under hypoxic conditions of 1% O2 and 5% CO2. The cells were treated with 0.1% DMSO containing 5 μM PIP1 or PIP2, recovered on the 0th day (R0), the 20th day (R20) and the 30th day ([…]), and examined for the degree of methylation in the region from -27 to -1 of the MLH1 gene by pyrosequencing. During the treatment with PIP, the medium containing PIP1 or PIP2 was replaced every 5 days, and the cells were subcultured when becoming confluent.

MLH1 gene = assay: expression of mRNA of the MLH1 gene in RKO cells by RT-PCR; format: cell-based
[3] = tested on: region from −27 to −1 of the MLH1 gene; assay: in vitro methylation of MLH1 plasmid by CpG methyltransferase M.SssI, pyrosequencing; format: biochemical; details: varying concentrations of PIP1, M.SssI, FIG. 3C
Procedure: A region from −780 to +483 (SEQ ID NO: 1) of MLH1 was amplified from the genomic DNA of the RKO cells by PCR using primers of SEQ ID NOs: 6 and 7 to obtain a DNA fragment, which was then integrated into pGEM-T Easy vector (Promega Corp., Fitchburg, USA) according to the manufacturer's manual (see FIG. 3A). 1 μg of the obtained plasmid was incubated at 25° C. for 12 hours in varying concentrations of PIP1 or 40 μM of PIP2 and 1× NEB buffer solution 2 (New England Biolabs Inc., Ipswich, USA) to bind the pyrrole imidazole polyamide to the DNA. For a negative control, DMSO was added to the plasmid and incubated.
[…] of S-adenosylmethionine (New England Biolabs Inc.) and 4 units of CpG methyltransferase M.SssI (New England Biolabs Inc.) were added to each sample, and 5% DMSO was added thereto to adjust the amount to 20 μL. After incubation at 37° C. for 2 hours, the reaction was terminated by incubation at 65° C. for 20 minutes. The DNA was purified by ethanol precipitation and dissolved in 100 μL of 10 mM Tris-HCl (pH 8.0). Then, the degree of DNA methylation at various sites of the MLH1 gene was tested by pyrosequencing. The primers used were as described in the following table.

[4] = tested on: FAM-labeled double-stranded oligo DNA of 15 base pairs including a region from −22 to −8 of the MLH1 gene; assay: gel shift assay of binding to the target sequence; details: 1 μM double-stranded oligo DNA, 37° C. for 1 hour, FIG. 2A
Procedure: PIP1 was confirmed by gel shift assay to bind to the target sequence. FAM-labeled double-stranded oligo DNA of 15 base pairs including a region from −22 to −8 of the MLH1 gene (double-stranded oligo DNA obtained by annealing sequences of SEQ ID NOs: 2 and 3) was prepared (lower part of FIG. 2A). 1 μM double-stranded oligo DNA was mixed at an indicated final concentration with PIP1 or PIP2 dissolved in 10 μL of a reaction solution containing 10 mM Tris-HCl (pH 8.0) and 10% DMSO, followed by incubation at 37° C. for 1 hour. The obtained reaction product was electrophoresed using 20% polyacrylamide gel, and double-stranded DNA on the gel was visualized using LAS-3000 (Fujifilm Corp., Japan).

RKO cells [5] = assay: gene expression analysis by RNA deep sequencing (FPKM) in RKO cells; format: cell-based; details: 10 μM PIP, hypoxia after AZA, FIG. 8 right graphs
Procedure: as §1, §2
Next, the expression levels of particular genes were analyzed. An RNA library was prepared using TruSeq Stranded mRNA Sample Prep Kit (Illumina, Inc.) according to the manufacturer's manual. Deep sequencing was performed using Illumina HiSeq 1500 or NextSeq 500 platform. FASTQ reads were mapped using TopHat, and transcripts were assembled using Cufflinks. gene expression was expressed as FPKM (fragments per kilobase of exon per million reads mapped). The results were as shown in the right graphs of FIG. 8.

Molecule | genome-wide methylation level (RKO cells [1]) | degree of methylation in the promoter region from −27 to −1 of the MLH1 gene after demethylation treatment ([2]; RKO cells, 5.0 μM AZA over 7 days, 10 nM TSA on the 7th day, FIG. 4A) | expression of mRNA of the MLH1 gene after demethylation treatment (MLH1 gene; RKO cells, 5.0 μM AZA over 7 days, 10 nM TSA on the 7th day, FIG. 4B) | inhibition of DNA methylation in the region from −27 to −1 of the MLH1 gene [3] | degree of DNA methylation in the region from −27 to −1 of the MLH1 gene on R20 and R30 ([2]; AZA or AZA+TSA pretreated RKO cells, hypoxic conditions 1% O2, 5 μM PIP, FIGS. 6A and 6B) | methylation in a −70 region, a −63 region, a +156 region, and a +171 region of the MLH1 gene ([2]; sites distant from the target site, hypoxic conditions, 5 μM PIP, FIG. 6E) | binding to the target double-stranded DNA (band shift) [4] | expression of mRNA of the MLH1 gene, which is reduced along with methylation (MLH1 gene; AZA+TSA-treated cells, hypoxic conditions, 5 μM PIP, FIGS. 6C and 6D) | gene expression of NOSTRIN, DSCR9, SLC22A25, OR3A4P and C1WTNF6 (RKO cells [5]) | gene expression of TCP11, LYPDS, STAR, LOC253573 and LOC100507573 (RKO cells [5]) | genes whose methylation level was reduced by Im0 and Im3 in common, TSS±1 kb region (RKO cells [1]) | probes whose methylation level was reduced by Im0 and Im3 in common, TSS±1 kb region (RKO cells [1]) | probes whose methylation level was reduced by Im0 and Im3 in common, whole genome (RKO cells [1]) | genes whose methylation was selectively reduced by this PIP, TSS±1 kb region (RKO cells [1]) | probes whose methylation was selectively reduced by this PIP, TSS±1 kb region (RKO cells [1]) | probes whose methylation was selectively reduced by this PIP, whole genome (RKO cells [1])
Nc1ncn([C@H]2C[C@H](O)[C@@H](CO)O2)c(=O)n1 [AZA, 5-aza-2′-deoxycytidine, reference compound] | demethylated genome-wide | reduced | restored | – | – | – | – | – | – | – | – | – | – | – | – | –
CC(=O)Nc1cc(C(=O)Nc2cn(C)c(C(=O)NCCC(=O)Nc3cn(C)c(C(=O)Nc4cn(C)c(C(O)Nc5c[nH]c(C(=O)NCCCC(=O)Nc6cn(C)c(C(=O)Nc7cc(C(=O)NCCC(=O)Nc8cn(C)c(C(=O)Nc9cc(C(=O)Nc%10cc(C(=O)NCCC(=O)NCCCN(C)C)n(C)c%10)n(C)c9)n8)n(C)c7)n6)c5)n4)n3)n2)n(C)c1 (stereo not drawn) [PIP1, Ac-Py-Im-β-Im-Im-Py-γ-Im-Py-β-Im-Py-Py-β-Dp] | – | – | – | inhibited DNA methylation in a concentration-dependent manner | an increase in the degree of methylation was suppressed | suppress methylation | confirmed to bind to the target double-stranded DNA | maintained | – | – | – | – | – | – | – | –
Me-Py-Py-Im-Py-β-Dp [Im3] | methylation levels of genes as a whole were drastically reduced | – | – | – | – | – | – | – | selectively maintained | maintained | 9 genes | 19 probes | 19 probes | 254 genes | 450 probes | 1171 probes
Me-Py-Py-Py-Py-β-Dp [Im0] | methylation levels of some genes were drastically reduced | – | – | – | – | – | – | – | – | maintained | 9 genes | 19 probes | 19 probes | 1110 genes | 2135 probes | 6099 probes
